Calls of active or inactive are those of the source. No cut-off for these calls is given here.
Tests used:
[1] = target: Protein-tyrosine kinase 6 (Homo sapiens) (UniProt Q13882); test: Inhibition of recombinant human full length His-tagged PTK6 expressed in baculovirus expression system at 2 uM using […] as substrate measured after 1 hr by Z'-LYTE assay relative to control
[2] = target: Serine/threonine-protein kinase PAK 3 (Homo sapiens) (UniProt O75914); test: Inhibition of recombinant human full length His-tagged PAK3 expressed in insect cells at 2 uM using Ser/Thr 20 as substrate measured after 1 hr by Z'-LYTE assay relative to control; settings: Insect cell
[3] = target: Dual specificity protein kinase CLK2 (Homo sapiens) (UniProt P49760); test: Inhibition of recombinant human GST-tagged CLK2 (137-498 residues) expressed in insect cells at 2 uM using Ser/Thr 06 as substrate measured after 1 hr by Z'-LYTE assay relative to control; settings: Insect cell
Sequence of Dual specificity protein kinase CLK2 (Homo sapiens) (P49760 whole entry, looked up, the tested form may be a part): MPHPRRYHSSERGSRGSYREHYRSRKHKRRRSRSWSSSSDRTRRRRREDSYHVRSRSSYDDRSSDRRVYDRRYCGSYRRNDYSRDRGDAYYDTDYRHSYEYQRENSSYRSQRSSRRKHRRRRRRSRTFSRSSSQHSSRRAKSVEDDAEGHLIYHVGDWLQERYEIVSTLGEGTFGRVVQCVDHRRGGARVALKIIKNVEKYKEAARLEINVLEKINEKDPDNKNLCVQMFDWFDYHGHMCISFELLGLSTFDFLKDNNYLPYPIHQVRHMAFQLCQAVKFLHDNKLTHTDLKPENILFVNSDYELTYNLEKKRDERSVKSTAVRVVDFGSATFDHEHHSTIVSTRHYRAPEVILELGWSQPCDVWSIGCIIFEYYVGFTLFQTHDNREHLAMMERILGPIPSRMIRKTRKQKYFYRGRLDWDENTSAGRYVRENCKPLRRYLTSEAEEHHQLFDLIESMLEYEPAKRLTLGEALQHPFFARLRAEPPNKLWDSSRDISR

[4] = target: Casein kinase II subunit alpha' (Homo sapiens) (UniProt P19784); test: Inhibition of recombinant human full-length GST-tagged CSNK2A2 expressed in insect cells at 2 uM using Ser/Thr 11 as substrate measured after 1 hr by Z'-LYTE assay relative to control; settings: Insect cell
MDA-MB-361 [5] = test: Antitumor activity against human MDA-MB-361 cells xenografted in female nude mouse model assessed as tumor growth delay at 5 mg/kg, po qd administered as 5 days on/2 days off regimen for 4 cycles; assay type: functional, organism-based; settings: time 28.0 day
[6] = target: G protein-coupled receptor kinase 4 (Homo sapiens) (UniProt P32298); test: Inhibition of recombinant human full-length GST-tagged GRK4 expressed in insect cells at 2 uM using Ser/Thr 16 as substrate measured after 1 hr by Z'-LYTE assay relative to control; settings: Insect cell
[7] = tested on: Tyrosine-protein kinase ABL1 (Homo sapiens), P00519 [Y253F]; test: Inhibition of recombinant human full-length His-tagged ABL1 Y253F mutant expressed in insect cells at 2 uM using Tyr 02 as substrate measured after 1 hr by Z'-LYTE assay relative to control; settings: Insect cell
[8] = target: Tyrosine-protein kinase Srms (Homo sapiens) (UniProt Q9H3Y6); test: Inhibition of recombinant human full length GST-tagged SRMS expressed in insect cells at 2 uM using Tyr 01 as substrate measured after 1 hr by Z'-LYTE assay relative to control; settings: Insect cell
Sequence of Tyrosine-protein kinase Srms (Homo sapiens) (Q9H3Y6 whole entry): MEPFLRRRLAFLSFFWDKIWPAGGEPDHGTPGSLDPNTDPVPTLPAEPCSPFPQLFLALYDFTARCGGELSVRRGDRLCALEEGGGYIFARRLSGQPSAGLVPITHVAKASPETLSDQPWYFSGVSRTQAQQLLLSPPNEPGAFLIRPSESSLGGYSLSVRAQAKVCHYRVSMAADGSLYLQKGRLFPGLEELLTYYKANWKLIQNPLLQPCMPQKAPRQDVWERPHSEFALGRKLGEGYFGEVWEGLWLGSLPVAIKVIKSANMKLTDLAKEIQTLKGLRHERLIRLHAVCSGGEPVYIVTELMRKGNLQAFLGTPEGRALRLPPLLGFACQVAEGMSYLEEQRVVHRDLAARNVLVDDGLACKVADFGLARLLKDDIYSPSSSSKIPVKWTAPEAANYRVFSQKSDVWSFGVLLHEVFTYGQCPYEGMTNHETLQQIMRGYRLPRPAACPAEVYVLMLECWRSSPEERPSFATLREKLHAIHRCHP

A549 = test: Antitumor activity against human A549 cells xenografted in female nude mouse model assessed as substantial regression in large tumor growth at 50 mg/kg, po qd administered as 5 days on/2 days off regimen for 4 cycles; assay type: functional, organism-based; settings: time 28.0 day
U-87 MG = test: Antiproliferative activity against human U-87MG cells assessed as cell growth inhibition incubated for 24 hrs by MTS assay; assay type: functional, cell-based, U-87MG ATCC
[9] = target: Mitogen-activated protein kinase 12 (Homo sapiens) (UniProt P53778); test: Inhibition of recombinant human full length His-tagged MAPK12 expressed in baculovirus expression system at 2 uM using Ser/Thr 03 as substrate measured after 1 hr by Z'-LYTE assay relative to control
Sequence of Mitogen-activated protein kinase 12 (Homo sapiens) (P53778 whole entry, the tested form may be a part): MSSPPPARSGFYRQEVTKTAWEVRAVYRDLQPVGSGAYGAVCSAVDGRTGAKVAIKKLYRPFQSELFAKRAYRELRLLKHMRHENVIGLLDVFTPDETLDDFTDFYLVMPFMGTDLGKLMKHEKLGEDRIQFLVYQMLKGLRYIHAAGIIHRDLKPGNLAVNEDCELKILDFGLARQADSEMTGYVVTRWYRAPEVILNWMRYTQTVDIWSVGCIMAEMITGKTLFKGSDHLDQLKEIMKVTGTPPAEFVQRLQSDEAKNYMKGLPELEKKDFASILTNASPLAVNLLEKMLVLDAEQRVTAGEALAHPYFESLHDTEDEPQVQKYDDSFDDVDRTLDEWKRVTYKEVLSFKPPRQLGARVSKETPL

[10] = target: Mitogen-activated protein kinase kinase kinase 9 (Homo sapiens) (UniProt P80192); test: Inhibition of recombinant human GST-tagged MAP3K9 (1-500 residues) expressed in insect cells at 2 uM using Ser/Thr 07 as substrate measured after 1 hr by Z'-LYTE assay relative to control; settings: Insect cell
Sequence of Mitogen-activated protein kinase kinase kinase 9 (Homo sapiens) (P80192 whole entry, looked up, the tested form may be a part): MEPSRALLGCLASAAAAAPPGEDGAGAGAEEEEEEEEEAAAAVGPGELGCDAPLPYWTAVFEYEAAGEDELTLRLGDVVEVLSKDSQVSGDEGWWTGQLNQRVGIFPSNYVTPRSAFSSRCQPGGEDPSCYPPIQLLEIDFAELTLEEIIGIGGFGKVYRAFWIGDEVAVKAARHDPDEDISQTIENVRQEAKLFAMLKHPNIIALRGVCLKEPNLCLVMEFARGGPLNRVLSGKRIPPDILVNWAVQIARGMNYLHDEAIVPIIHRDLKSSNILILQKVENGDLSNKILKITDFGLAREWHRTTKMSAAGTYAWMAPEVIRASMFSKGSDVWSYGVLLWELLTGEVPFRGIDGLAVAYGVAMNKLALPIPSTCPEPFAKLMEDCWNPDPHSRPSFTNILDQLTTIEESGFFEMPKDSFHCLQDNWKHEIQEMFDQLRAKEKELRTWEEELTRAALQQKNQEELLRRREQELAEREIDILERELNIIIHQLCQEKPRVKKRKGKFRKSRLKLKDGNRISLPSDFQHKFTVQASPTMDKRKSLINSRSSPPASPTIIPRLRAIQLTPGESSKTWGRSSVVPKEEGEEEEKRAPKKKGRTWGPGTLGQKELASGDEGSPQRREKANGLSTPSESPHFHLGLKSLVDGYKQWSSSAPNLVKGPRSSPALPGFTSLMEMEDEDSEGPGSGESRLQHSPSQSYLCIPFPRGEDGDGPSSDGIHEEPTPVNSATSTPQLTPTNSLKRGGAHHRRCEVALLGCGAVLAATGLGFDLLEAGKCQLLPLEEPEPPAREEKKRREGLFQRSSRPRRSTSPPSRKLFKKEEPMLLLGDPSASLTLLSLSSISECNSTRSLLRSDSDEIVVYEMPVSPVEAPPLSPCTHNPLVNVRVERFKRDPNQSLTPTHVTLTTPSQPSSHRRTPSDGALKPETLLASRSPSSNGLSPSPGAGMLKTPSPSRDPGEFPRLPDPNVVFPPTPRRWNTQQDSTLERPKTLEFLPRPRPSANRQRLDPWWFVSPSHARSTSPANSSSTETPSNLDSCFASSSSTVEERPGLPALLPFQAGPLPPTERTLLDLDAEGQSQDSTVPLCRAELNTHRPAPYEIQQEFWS

MDA-MB-361 [11] = test: Antitumor activity against human MDA-MB-361 cells xenografted in female nude mouse model assessed as tumor growth delay at po qd administered as 5 days on/2 days off regimen for 4 cycles; assay type: functional, organism-based; settings: dose 5-20 mg/kg, time 28.0 day
MDA-MB-361 [12] = test: Antitumor activity against human MDA-MB-361 cells assessed as block the accumulation of HIF-1alpha in low oxygen at 0.3 micromol/L incubated for 24 hrs by immunoblot analysis; assay type: functional, cell-based; settings: dose 0.3 µmol/L
[13] = target: Tyrosine-protein kinase ZAP-70 (Homo sapiens) (UniProt P43403); test: Inhibition of recombinant human full length His-tagged ZAP70 expressed in baculovirus expression system at 2 uM using […] as substrate measured after 1 hr by Z'-LYTE assay relative to control
[14] = target: G protein-coupled receptor kinase 5 (Homo sapiens) (UniProt P34947); test: Inhibition of recombinant human full-length GST-tagged GRK5 expressed in insect cells at 2 uM using Ser/Thr 16 as substrate measured after 1 hr by Z'-LYTE assay relative to control; settings: Insect cell
Sequence of G protein-coupled receptor kinase 5 (Homo sapiens) (P34947 whole entry, looked up): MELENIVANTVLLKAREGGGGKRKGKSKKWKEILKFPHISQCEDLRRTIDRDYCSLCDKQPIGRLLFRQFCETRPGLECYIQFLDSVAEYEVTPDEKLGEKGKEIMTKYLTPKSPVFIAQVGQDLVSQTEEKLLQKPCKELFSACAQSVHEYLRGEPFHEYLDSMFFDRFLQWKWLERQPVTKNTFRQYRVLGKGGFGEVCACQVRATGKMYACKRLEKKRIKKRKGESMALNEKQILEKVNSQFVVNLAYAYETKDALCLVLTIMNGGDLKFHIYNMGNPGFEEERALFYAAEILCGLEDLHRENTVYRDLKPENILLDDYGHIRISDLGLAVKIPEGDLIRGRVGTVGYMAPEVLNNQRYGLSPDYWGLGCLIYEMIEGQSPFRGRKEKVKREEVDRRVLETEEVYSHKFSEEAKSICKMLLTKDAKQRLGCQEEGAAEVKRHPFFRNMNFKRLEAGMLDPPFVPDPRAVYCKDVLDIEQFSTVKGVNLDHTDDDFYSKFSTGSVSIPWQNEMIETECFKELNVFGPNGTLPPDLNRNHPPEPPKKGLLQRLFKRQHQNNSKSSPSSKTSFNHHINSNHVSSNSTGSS

[15] = target: Tyrosine-protein kinase Lyn (Homo sapiens) (UniProt P07948); test: Inhibition of recombinant human full length His-tagged LYN B expressed in baculovirus expression system at 2 uM using Tyr 02 as substrate measured after 1 hr by Z'-LYTE assay relative to control
Sequence of Tyrosine-protein kinase Lyn (Homo sapiens) (P07948 2-512 limits assumed): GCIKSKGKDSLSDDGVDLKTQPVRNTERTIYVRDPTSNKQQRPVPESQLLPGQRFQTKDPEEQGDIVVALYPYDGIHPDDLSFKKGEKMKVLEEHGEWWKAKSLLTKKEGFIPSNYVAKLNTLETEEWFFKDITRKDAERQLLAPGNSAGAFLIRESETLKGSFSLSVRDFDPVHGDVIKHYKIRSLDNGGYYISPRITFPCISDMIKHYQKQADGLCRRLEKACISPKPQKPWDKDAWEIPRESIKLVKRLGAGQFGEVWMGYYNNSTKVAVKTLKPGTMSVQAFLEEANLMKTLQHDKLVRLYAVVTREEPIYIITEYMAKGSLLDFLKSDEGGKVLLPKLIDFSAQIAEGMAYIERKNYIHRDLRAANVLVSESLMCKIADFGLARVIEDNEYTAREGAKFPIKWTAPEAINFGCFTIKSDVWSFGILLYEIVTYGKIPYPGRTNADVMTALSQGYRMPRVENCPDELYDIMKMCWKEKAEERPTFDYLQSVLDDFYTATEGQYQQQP

[16] = target: Mitogen-activated protein kinase 3 (Homo sapiens) (UniProt P27361); test: Inhibition of recombinant human full length GST-tagged MAPK3 expressed in E. coli at 2 uM using Ser/Thr 03 as substrate measured after 1 hr by Z'-LYTE assay relative to control
[17] = target: Muscle, skeletal receptor tyrosine-protein kinase (Homo sapiens) (UniProt O15146); test: Inhibition of recombinant human GST-tagged MUSK (519-869 residues) expressed in insect cells at 2 uM using Tyr 04 as substrate measured after 1 hr by Z'-LYTE assay relative to control; settings: Insect cell
BT-549 = test: Antiproliferative activity against human BT-549 cells assessed as cell growth inhibition incubated for 24 hrs by MTS assay; assay type: functional, cell-based; settings: BT-549, 24 h
PC3MM2 = test: Induction of apoptosis in human PC3MM2 cells assessed as reduction in S phase at 1 micromol/L incubated for 24 hrs by FACS analysis; assay type: functional, cell-based; settings: dose 1.0 µmol/L
[18] = target: Serine/threonine-protein kinase PAK 5 (Homo sapiens) (UniProt Q9P286); test: Inhibition of recombinant human His-tagged PAK7 (425-719 residues) expressed in baculovirus expression system at 2 uM using Ser/Thr 20 as substrate measured after 1 hr by Z'-LYTE assay relative to control
mTORC2 (Homo sapiens) = mTORC2 (Homo sapiens) (UniProt P42345+Q6R327+Q9BVC4+Q9BPZ7); settings: U-87 MG, dose 0.025-2 µmol/L, time 6.0 hrs
[19] = target: Myosin light chain kinase 2, skeletal/cardiac muscle (Homo sapiens) (UniProt Q9H1R3); test: Inhibition of recombinant human full length GST-tagged MYLK2 expressed in insect cells at 2 uM using Ser/Thr 13 as substrate measured after 1 hr by Z'-LYTE assay relative to control; settings: Insect cell
MDA-MB-361 [20] = test: Antiproliferative activity against human MDA-MB-361 cells assessed as cell growth inhibition incubated for 1 days by MTS assay; assay type: functional, cell-based; settings: MDA-MB-361, 24 h
[21] = target: Hepatocyte growth factor receptor (Homo sapiens) (UniProt P08581); test: Inhibition of recombinant human His-tagged MET (956-1390 residues) expressed in baculovirus expression system at 2 uM using Tyr 06 as substrate measured after 1 hr by Z'-LYTE assay relative to control
Sequence of Hepatocyte growth factor receptor (Homo sapiens) (P08581 whole entry, the tested form may be a part): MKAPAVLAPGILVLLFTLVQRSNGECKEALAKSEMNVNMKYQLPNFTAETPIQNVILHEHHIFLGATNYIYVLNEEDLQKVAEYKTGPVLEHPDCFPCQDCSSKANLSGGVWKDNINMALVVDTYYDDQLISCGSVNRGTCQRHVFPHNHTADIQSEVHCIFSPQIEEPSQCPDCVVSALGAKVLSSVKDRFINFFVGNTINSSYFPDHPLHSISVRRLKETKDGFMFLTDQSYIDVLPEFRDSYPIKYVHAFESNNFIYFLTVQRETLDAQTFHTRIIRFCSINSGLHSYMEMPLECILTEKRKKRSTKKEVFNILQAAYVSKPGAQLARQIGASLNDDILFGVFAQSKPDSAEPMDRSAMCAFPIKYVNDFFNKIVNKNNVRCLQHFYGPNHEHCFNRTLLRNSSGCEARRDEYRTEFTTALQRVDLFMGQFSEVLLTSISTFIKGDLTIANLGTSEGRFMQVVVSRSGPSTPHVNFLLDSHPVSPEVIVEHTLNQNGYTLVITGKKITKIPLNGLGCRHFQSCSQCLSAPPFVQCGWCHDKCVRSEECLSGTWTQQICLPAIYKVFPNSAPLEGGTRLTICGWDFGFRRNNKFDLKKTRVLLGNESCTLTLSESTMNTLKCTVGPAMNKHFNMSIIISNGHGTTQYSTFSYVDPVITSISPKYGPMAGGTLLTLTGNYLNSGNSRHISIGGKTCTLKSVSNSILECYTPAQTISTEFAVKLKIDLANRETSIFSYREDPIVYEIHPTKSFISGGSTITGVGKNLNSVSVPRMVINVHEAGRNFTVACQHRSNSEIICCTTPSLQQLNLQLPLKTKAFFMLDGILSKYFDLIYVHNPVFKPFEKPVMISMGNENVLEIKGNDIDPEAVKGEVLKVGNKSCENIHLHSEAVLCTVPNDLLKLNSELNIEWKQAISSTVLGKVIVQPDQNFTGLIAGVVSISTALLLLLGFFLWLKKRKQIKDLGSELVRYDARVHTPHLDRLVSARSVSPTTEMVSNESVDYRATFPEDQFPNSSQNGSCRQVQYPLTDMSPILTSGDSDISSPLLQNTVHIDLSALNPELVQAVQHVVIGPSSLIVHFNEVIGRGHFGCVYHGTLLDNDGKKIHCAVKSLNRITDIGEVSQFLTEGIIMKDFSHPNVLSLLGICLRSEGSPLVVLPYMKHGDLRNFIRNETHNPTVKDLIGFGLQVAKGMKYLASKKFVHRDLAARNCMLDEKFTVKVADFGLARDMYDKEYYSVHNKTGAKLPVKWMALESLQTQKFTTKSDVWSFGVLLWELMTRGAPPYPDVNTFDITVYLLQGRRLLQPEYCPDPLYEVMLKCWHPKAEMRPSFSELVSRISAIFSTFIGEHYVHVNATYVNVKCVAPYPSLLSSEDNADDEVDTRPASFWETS

In the case of `CNC(=O)Nc1ccc(-c2nc(N3CC4CCC(C3)O4)c3cnn(C4CCC5(CC4)OCCO5)c3n2)cc1`, the inhibition [1] is reported as 8%, the inhibition [2] is reported as 1% and the inhibition [3] is reported as 0%. The inhibition [4] was 3%, the Activity (MDA-MB-361 [5]) was “Active” and the inhibition [6] was -4%. The inhibition [7] was 0%, the inhibition [8] was 7% and the Activity (A549) was “Active”. The IC50 (U-87 MG) was 65 nM, the inhibition [9] was -2% and the inhibition [10] was 11%. The Activity (MDA-MB-361 [11]) was “Dose-Dependent Effect”, the Activity (MDA-MB-361 [12]) was “Active” and the inhibition [13] was 7%. The inhibition [14] was -4%, the inhibition [15] was 5% and the inhibition [16] was 1%. The inhibition [17] was 15%, the IC50 (BT-549) was 37 nM and the Activity (PC3MM2) was “Active”. The inhibition [18] was 11%, the inhibition (mTORC2 (Homo sapiens)) was “Active” and the inhibition [19] was 8%. It also gave an IC50 (MDA-MB-361 [20]) of 20000 nM and an inhibition [21] of 2%.

From ChEMBL document CHEMBL5696439 (Cancer Res, 2010)
